Test results taken from publication PMC8019204 (Cancer Science, 2021).
Values joined by “and” are separate entries in the source; they are usually repeats but may differ in a detail not shown here. Equal values may be shown once. Read-outs that look alike come from different tables or passages of the source.

How the values were obtained:
[1] = test system: METΔex14‐mutated NSCLC
[2] = test system: MET‐amplified NSCLC; settings: global population, cited from earlier work
[3] = GEOMETRY mono-1: safety; assay type: in vivo, human
[4] = test system: METΔex14‐mutated NSCLC; settings: global population, cited from earlier work
[5] = single agent; Japanese patients with advanced solid tumors; cited from earlier work
[6] = test system: MET‐amplified NSCLC
[7] = GEOMETRY mono-1: plasma pharmacokinetics of capmatinib; assay type: in vivo, human; settings: for AUC(0-t): AUC0–12, geometric mean (CV%)
[8] = 1L group, the one patient with PR
[9] = 2/3L, cohort 1a GCN ≥ 10 (n = 11)
[10] = 2/3L, cohort 1b GCN ≥ 6 to <10 (n = 1)
[11] = 2/3L, cohort 2 GCN ≥ 4 to <6 (n = 10)

CNC(=O)c1ccc(-c2cnc3ncc(Cc4ccc5ncccc5c4)n3n2)cc1F [capmatinib, Capmatinib]
Best overall response: CR ([1]; 1L group (cohort 5b, n = 2)): 0 n (%) of patients
Best overall response: Non‐CR/non‐PD ([1]; 1L group (cohort 5b, n = 2)): 0 n (%) of patients
Best overall response: PD ([1]; 1L group (cohort 5b, n = 2)): 0 n (%) of patients
Best overall response: PR ([1]; 1L group (cohort 5b, n = 2)): 1 (50.0) n (%) of patients
Best overall response: SD ([1]; 1L group (cohort 5b, n = 2)): 1 (50.0) n (%) of patients
Best overall response: Unknown ([1]; 1L group (cohort 5b, n = 2)): 0 n (%) of patients
DOR [1, 8]: 4.24 months
Decrease in lesion size [1, 8]: 76.5%
Time to confirmed PD after starting capmatinib [1, 8]: 168 days and 5.5 months
DCR (BIRC) ([1]; 2/3L group (cohort 4)): 81.8%
Median PFS (BIRC) ([1]; 2/3L group (cohort 4)): 4.70 months
ORR (BIRC) ([1]; 2/3L group (cohort 4)): 36.4%
Best overall response: CR ([1]; 2/3L group (cohort 4, n = 11)): 0 n (%) of patients
Best overall response: Non‐CR/non‐PD ([1]; 2/3L group (cohort 4, n = 11)): 0 n (%) of patients
Best overall response: PD ([1]; 2/3L group (cohort 4, n = 11)): 1 (9.1) n (%) of patients
Best overall response: PR ([1]; 2/3L group (cohort 4, n = 11)): 4 (36.4) n (%) of patients
Best overall response: SD ([1]; 2/3L group (cohort 4, n = 11)): 5 (45.5) n (%) of patients
Best overall response: Unknown ([1]; 2/3L group (cohort 4, n = 11)): 1 (9.1) n (%) of patients
Median DOR (95% CI) ([1]; 2/3L group (cohort 4, n = 11)): NE (3.35–NE)
Median TTR (95% CI) ([1]; 2/3L group (cohort 4, n = 11)): NE (1.38–NE)
Probability estimate at 3 mo for TTR (95% CI) ([1]; 2/3L group (cohort 4, n = 11)): 36.4 (15.5‐70.3)
Tumor shrinkage, deep response ([1]; 2/3L group, a patient with PR): ~ 80%
Brain response per independent neuroradiologist review ([1]; 2/3L group, one patient with brain metastases, CT 12 weeks after starting capmatinib): partial resolution of brain lesions
Tumor shrinkage, deep response ([1]; one patient in each group (1L and 2/3L)): ~ 80%
Median DOR ([2]; GCN ≥10, first‐line): 7.5 months
Median DOR ([2]; GCN ≥10, second/third‐line): 8.3 months
Treatment‐related AE: Nausea ([3]; 45 Japanese patients): 35.6%
Treatment‐related AE: Oedema peripheral ([3]; 45 Japanese patients): 31.1%
Treatment‐related AE: blood creatinine increased ([3]; 45 Japanese patients): 53.3%
Capmatinib interrupted due to AEs ([3]; METΔex14 1L group (n = 2)): both
Discontinuation from treatment phase, reason: Adverse event ([3]; METΔex14 1L group (n = 2)): 1 (50.0) n (%) of patients
Capmatinib interrupted due to AEs ([3]; METΔex14 2/3L group (n = 11)): 10 patients
Discontinuation from treatment phase, reason: Adverse event ([3]; METΔex14 2/3L group (n = 11)): 3 (27.3) n (%) of patients
Dose reductions due to AEs ([3]; METΔex14 2/3L group (n = 11)): eight
AEs leading to permanent discontinuation ([3]; all patients (n = 45)): 8 (17.8) n (%) of patients
AEs requiring dose adjustment/interruption ([3]; all patients (n = 45)): 30 (66.7) n (%) of patients
Any AE ([3]; all patients (n = 45)): 45 (100.0) n (%) of patients
Any grade 3/4 AE ([3]; all patients (n = 45)): 33 (73.3) n (%) of patients
Any grade 3/4 serious AE ([3]; all patients (n = 45)): 18 (40.0) n (%) of patients
Any serious AE ([3]; all patients (n = 45)): 22 (48.9) n (%) of patients
Any treatment‐related grade 3/4 serious AE ([3]; all patients (n = 45)): 9 (20.0) n (%) of patients
Any treatment‐related serious AE ([3]; all patients (n = 45)): 12 (26.7) n (%) of patients
Grade 3/4 AEs leading to permanent discontinuation ([3]; all patients (n = 45)): 4 (8.9) n (%) of patients
Grade 3/4 AEs requiring dose adjustment/interruption ([3]; all patients (n = 45)): 22 (48.9) n (%) of patients
Any grade 3/4 treatment‐related AE ([3]; all patients (n = 45), Table 4): 25 (55.6) n (%) of patients
Any treatment‐related AE ([3]; all patients (n = 45), Table 4): 44 (97.8) n (%) of patients
Deaths ([3]; all patients (n = 45), considered related to NSCLC): 1 (2.2) n (%) of patients
Treatment‐related AE (investigations): ALT increased ([3]; any grade, n = 45): 6 (13.3) n (%) of patients
Treatment‐related AE (investigations): AST increased ([3]; any grade, n = 45): 6 (13.3) n (%) of patients
Treatment‐related AE (investigations): Amylase increased ([3]; any grade, n = 45): 8 (17.8) n (%) of patients
Treatment‐related AE (investigations): Blood ALP increased ([3]; any grade, n = 45): 4 (8.9) n (%) of patients
Treatment‐related AE (investigations): Blood creatinine increased ([3]; any grade, n = 45): 24 (53.3) n (%) of patients
Treatment‐related AE (investigations): Lipase increased ([3]; any grade, n = 45): 6 (13.3) n (%) of patients
Treatment‐related AE (investigations): Neutrophil count decreased ([3]; any grade, n = 45): 5 (11.1) n (%) of patients
Treatment‐related AE (investigations): Platelet count decreased ([3]; any grade, n = 45): 8 (17.8) n (%) of patients
Treatment‐related AE (investigations): WBC count decreased ([3]; any grade, n = 45): 4 (8.9) n (%) of patients
Treatment‐related AE (investigations): γGT increased ([3]; any grade, n = 45): 3 (6.7) n (%) of patients
Treatment‐related AE: Anaemia ([3]; any grade, n = 45): 3 (6.7) n (%) of patients
Treatment‐related AE: Cellulitis ([3]; any grade, n = 45): 3 (6.7) n (%) of patients
Treatment‐related AE: Constipation ([3]; any grade, n = 45): 5 (11.1) n (%) of patients
Treatment‐related AE: Decreased appetite ([3]; any grade, n = 45): 10 (22.2) n (%) of patients
Treatment‐related AE: Diarrhoea ([3]; any grade, n = 45): 8 (17.8) n (%) of patients
Treatment‐related AE: Dry skin ([3]; any grade, n = 45): 4 (8.9) n (%) of patients
Treatment‐related AE: Fatigue ([3]; any grade, n = 45): 4 (8.9) n (%) of patients
Treatment‐related AE: Headache ([3]; any grade, n = 45): 3 (6.7) n (%) of patients
Treatment‐related AE: Hypoalbuminaemia ([3]; any grade, n = 45): 4 (8.9) n (%) of patients
Treatment‐related AE: Malaise ([3]; any grade, n = 45): 3 (6.7) n (%) of patients
Treatment‐related AE: Nausea ([3]; any grade, n = 45): 16 (35.6) n (%) of patients
Treatment‐related AE: Oedema peripheral ([3]; any grade, n = 45): 14 (31.1) n (%) of patients
Treatment‐related AE: Pyrexia ([3]; any grade, n = 45): 7 (15.6) n (%) of patients
Treatment‐related AE: Rash ([3]; any grade, n = 45): 5 (11.1) n (%) of patients
Treatment‐related AE: Vomiting ([3]; any grade, n = 45): 12 (26.7) n (%) of patients
Any treatment‐related AE ([3]; any grade, n = 45, Table 5): 44 (97.8) n (%) of patients
Treatment‐related AE (investigations): ALT increased ([3]; grade 3/4, n = 45): 2 (4.4) n (%) of patients
Treatment‐related AE (investigations): AST increased ([3]; grade 3/4, n = 45): 2 (4.4) n (%) of patients
Treatment‐related AE (investigations): Amylase increased ([3]; grade 3/4, n = 45): 2 (4.4) n (%) of patients
Treatment‐related AE (investigations): Blood ALP increased ([3]; grade 3/4, n = 45): 0 n (%) of patients
Treatment‐related AE (investigations): Blood creatinine increased ([3]; grade 3/4, n = 45): 0 n (%) of patients
Treatment‐related AE (investigations): Lipase increased ([3]; grade 3/4, n = 45): 3 (6.7) n (%) of patients
Treatment‐related AE (investigations): Neutrophil count decreased ([3]; grade 3/4, n = 45): 3 (6.7) n (%) of patients
Treatment‐related AE (investigations): Platelet count decreased ([3]; grade 3/4, n = 45): 2 (4.4) n (%) of patients
Treatment‐related AE (investigations): WBC count decreased ([3]; grade 3/4, n = 45): 1 (2.2) n (%) of patients
Treatment‐related AE (investigations): γGT increased ([3]; grade 3/4, n = 45): 1 (2.2) n (%) of patients
Treatment‐related AE: Anaemia ([3]; grade 3/4, n = 45): 1 (2.2) n (%) of patients
Treatment‐related AE: Cellulitis ([3]; grade 3/4, n = 45): 1 (2.2) n (%) of patients
Treatment‐related AE: Constipation ([3]; grade 3/4, n = 45): 1 (2.2) n (%) of patients
Treatment‐related AE: Decreased appetite ([3]; grade 3/4, n = 45): 2 (4.4) n (%) of patients
Treatment‐related AE: Diarrhoea ([3]; grade 3/4, n = 45): 1 (2.2) n (%) of patients
Treatment‐related AE: Dry skin ([3]; grade 3/4, n = 45): 0 n (%) of patients
Treatment‐related AE: Fatigue ([3]; grade 3/4, n = 45): 0 n (%) of patients
Treatment‐related AE: Headache ([3]; grade 3/4, n = 45): 0 n (%) of patients
Treatment‐related AE: Hypoalbuminaemia ([3]; grade 3/4, n = 45): 0 n (%) of patients
Treatment‐related AE: Malaise ([3]; grade 3/4, n = 45): 1 (2.2) n (%) of patients
Treatment‐related AE: Nausea ([3]; grade 3/4, n = 45): 0 n (%) of patients
Treatment‐related AE: Oedema peripheral ([3]; grade 3/4, n = 45): 3 (6.7) n (%) of patients
Treatment‐related AE: Pyrexia ([3]; grade 3/4, n = 45): 0 n (%) of patients
Treatment‐related AE: Rash ([3]; grade 3/4, n = 45): 0 n (%) of patients
Treatment‐related AE: Vomiting ([3]; grade 3/4, n = 45): 1 (2.2) n (%) of patients
Any treatment‐related AE ([3]; grade 3/4, n = 45, Table 5): 25 (55.6) n (%) of patients
Patients who experienced at least one AE ([3]; of 45 patients, cutoff September 18, 2019): 45 patients
Discontinuation from treatment phase, reason: Adverse event ([3]; overall Japanese cohort (n = 45), cutoff April 15, 2019): 8 (17.8) n (%) of patients
ORR by BIRC ([4]; first‐line, 28 patients): 68%
Median DOR in responders ([4]; first‐line): 12.6 months
Intracranial responses, share of patients ([4]; patients with evaluable brain metastases at baseline): about half
ORR by BIRC ([4]; second‐/third‐line, 69 patients): 41%
Tumor shrinkage ([4]; second‐/third‐line, in two patients): > 90%
Median DOR in responders ([4]; second‐/third‐line): 9.7 months
Maximum tolerated dose [5]: not identified
Median DOR ([6]; 1L, cohort 5a GCN ≥ 10): 8.2 months
ORR (BIRC) ([6]; 1L, cohort 5a GCN ≥ 10 (n = 2)): 100%
Median DOR ([6]; 2/3L, cohort 1a GCN ≥ 10): 8.3 months
DCR (BIRC) [6, 9]: 81.8%
ORR (BIRC) [6, 9]: 45.5%
DCR (BIRC) [6, 10]: 100.0%
ORR (BIRC) [6, 10]: 0%
Median DOR ([6]; 2/3L, cohort 2 GCN ≥ 4 to <6): 9.7
DCR (BIRC) [6, 11]: 50.0%
ORR (BIRC) [6, 11]: 10%
DCR (BIRC) ([6]; 2/3L, cohort 3 GCN < 4 (n = 6)): 66.7%
ORR (BIRC) ([6]; 2/3L, cohort 3 GCN < 4 (n = 6)): 16.7%
Accumulation of exposure ([7]; 400 mg twice daily, Japanese patients): 1.41 fold
Accumulation of exposure ([7]; 400 mg twice daily, overall study result): 1.39 fold
Racc AUC0–12 (accumulation ratio), geometric mean (CV%) ([7]; cycle 1, day 15 (steady state), 400 mg twice daily, fasting, Japanese patients): 1.41
Time at which maximum concentration was reached after administration ([7]; day 15, 400 mg twice daily, Japanese patients): ≤ 1 h
half-life ([7]; human, plasma, oral, 400 mg): 6.54 h
AUC(0-t) ([7]; human, plasma, oral, 400 mg, cycle 1, day 1, 400 mg twice daily, fasting, Japanese patients): 18200 ng·h/mL
AUC(0-t) ([7]; human, plasma, oral, 400 mg, cycle 1, day 15 (steady state), 400 mg twice daily, fasting, Japanese patients): 27000 ng·h/mL
Cmax ([7]; human, plasma, oral, 400 mg, Cmax, geometric mean (CV%), cycle 1, day 15 (steady state), 400 mg twice daily, fasting, Japanese patients): 5920 ng/mL
